Reference: patent US20220177508A1, “C10-Cyclic Substituted 13-Membered Macrolides and Uses Thereof” (Zikani Therapeutics, Inc., priority 2018, published 2022)
In brackets after ≈: the same amount, converted by molar mass.

How the values were obtained:
Assay type in all cases: cell-based
A. baumannii MP-15 = assay: Broth dilution MIC determination (CLSI), A. baumannii MP-15; settings: Acinetobacter baumannii, MP15; strain MP-15, broth dilution; read-out: MIC A. baumanii MP-15
K. pneumoniae MP-546 = assay: Broth dilution MIC determination (CLSI), K. pneumoniae MP-546; settings: Klebsiella pneumoniae, MP546; strain MP-546, broth dilution
K. pneumoniae MP-648 = assay: Broth dilution MIC determination (CLSI), K. pneumoniae MP-648; settings: Klebsiella pneumoniae, MP648; strain MP-648, broth dilution
P. aeruginosa MP-3 = assay: Broth dilution MIC determination (CLSI), P. aeruginosa MP-3; settings: Pseudomonas aeruginosa, MP3; strain MP-3, broth dilution
E. coli MP-4 = assay: Broth dilution MIC determination (CLSI), E. coli MP-4; settings: Escherichia coli, MP4; strain MP-4, broth dilution; read-out: MIC E. coli MP-4
S. aureus MP-12 = assay: Broth dilution MIC determination (CLSI), S. aureus MP-12; settings: Staphylococcus aureus, MP12; strain MP-12, broth dilution

Compound: CO[C@]1(C)C[C@@H](C)CN(C)[C@H](C2CN(C(=O)[C@@H]3CCNC3)C2)COC(=O)C(C)(C)C(=O)[C@H](C)[C@H]1O[C@@H]1O[C@H](C)C[C@H](N(C)C)[C@H]1O [Compound 22, (3R,6R,8R,9R,10R)-9-(((2S,3R,4S,6R)-4-(dimethylamino)-3-hydroxy-6-methyltetrahydro-2H-pyran-2-yl)oxy)-8-methoxy-4,6,8,10,12,12-hexamethyl-3-(1-((R)-pyrrolidine-3-carbonyl)azetidin-3-yl)-1-oxa-4-azacyclotridecane-11,13-dione]
- MIC (A. baumannii MP-15): > 32 µg/mL
- MIC (K. pneumoniae MP-546): > 32 µg/mL
- MIC (K. pneumoniae MP-648): > 32 µg/mL
- MIC (P. aeruginosa MP-3): > 32 µg/mL
- MIC (E. coli MP-4): 4 to 32 µg/mL (≈ 6.13 to 49 µM)
- MIC (S. aureus MP-12): 4 to 32 µg/mL (≈ 6.13 to 49 µM)

Compound: CO[C@]1(C)C[C@@H](C)CN(C)[C@H]([C@H]2C[C@H](N(C)CC3CC3)C2)COC(=O)C(C)(C)C(=O)[C@H](C)[C@H]1O[C@@H]1O[C@H](C)C[C@H](N(C)C)[C@H]1O [Compound 24, (3R,6R,8R,9R,10R)-3-((1r,3R)-3-((cyclopropylmethyl)(methyl)amino)cyclobutyl)-9-(((2S,3R,4S,6R)-4-(dimethylamino)-3-hydroxy-6-methyltetrahydro-2H-pyran-2-yl)oxy)-8-methoxy-4,6,8,10,12,12-hexamethyl-1-oxa-4-azacyclotridecane-11,13-dione]
- MIC (A. baumannii MP-15): > 32 µg/mL
- MIC (K. pneumoniae MP-546): < 4 µg/mL
- MIC (K. pneumoniae MP-648): < 4 µg/mL
- MIC (P. aeruginosa MP-3): > 32 µg/mL
- MIC (E. coli MP-4): < 4 µg/mL
- MIC (S. aureus MP-12): 4 to 32 µg/mL (≈ 6.27 to 50.2 µM)

Compound: CO[C@]1(C)C[C@@H](C)CN(C)[C@H](C2CN(C(=O)CC(C)(C)CN(C)CC3CC3)C2)COC(=O)C(C)(C)C(=O)[C@H](C)[C@H]1O[C@@H]1O[C@H](C)C[C@H](N(C)C)[C@H]1O [Compound 25, (3R,6R,8R,9R,10R)-3-(1-(4-((cyclopropylmethyl)(methyl)amino)-3,3-dimethylbutanoyl)azetidin-3-yl)-9-(((2S,3R,4S,6R)-4-(dimethylamino)-3-hydroxy-6-methyltetrahydro-2H-pyran-2-yl)oxy)-8-methoxy-4,6,8,10,12,12-hexamethyl-1-oxa-4-azacyclotridecane-11,13-dione]
- MIC (A. baumannii MP-15): > 32 µg/mL
- MIC (K. pneumoniae MP-546): < 4 µg/mL
- MIC (K. pneumoniae MP-648): 4 to 32 µg/mL (≈ 5.43 to 43.4 µM)
- MIC (P. aeruginosa MP-3): > 32 µg/mL
- MIC (E. coli MP-4): < 4 µg/mL
- MIC (S. aureus MP-12): 4 to 32 µg/mL (≈ 5.43 to 43.4 µM)

Compound: CO[C@]1(C)C[C@@H](C)CN(C)[C@H]([C@H]2C[C@H](N(C)C)C2)COC(=O)C(C)(C)C(=O)[C@H](C)[C@H]1O[C@@H]1O[C@H](C)C[C@H](N(C)C)[C@H]1O [Compound 30, (3R,6R,8R,9R,10R)-9-(((2S,3R,4S,6R)-4-(dimethylamino)-3-hydroxy-6-methyltetrahydro-2H-pyran-2-yl)oxy)-3-((1r,3R)-3-(dimethylamino)cyclobutyl)-8-methoxy-4,6,8,10,12,12-hexamethyl-1-oxa-4-azacyclotridecane-11,13-dione]
- MIC (A. baumannii MP-15): > 32 µg/mL
- MIC (K. pneumoniae MP-546): < 4 µg/mL
- MIC (K. pneumoniae MP-648): < 4 µg/mL
- MIC (P. aeruginosa MP-3): > 32 µg/mL
- MIC (E. coli MP-4): < 4 µg/mL
- MIC (S. aureus MP-12): 4 to 32 µg/mL (≈ 6.69 to 53.5 µM)

Compound: CO[C@]1(C)C[C@@H](C)CN(C)[C@H]([C@H]2C[C@@H](N(C)CC3CCCO3)C2)COC(=O)C(C)(C)C(=O)[C@H](C)[C@H]1O[C@@H]1O[C@H](C)C[C@H](N(C)C)[C@H]1O (stereo partly drawn) [Compound 31, (3R,6R,8R,9R,10R)-9-(((2S,3R,4S,6R)-4-(dimethylamino)-3-hydroxy-6-methyltetrahydro-2H-pyran-2-yl)oxy)-8-methoxy-4,6,8,10,12,12-hexamethyl-3-((1s,3S)-3-(methyl((tetrahydrofuran-2-yl)methyl)amino)cyclobutyl)-1-oxa-4-azacyclotridecane-11,13-dione]
- MIC (A. baumannii MP-15): > 32 µg/mL
- MIC (K. pneumoniae MP-546): < 4 µg/mL
- MIC (K. pneumoniae MP-648): 4 to 32 µg/mL (≈ 5.99 to 47.9 µM)
- MIC (P. aeruginosa MP-3): > 32 µg/mL
- MIC (E. coli MP-4): < 4 µg/mL
- MIC (S. aureus MP-12): > 32 µg/mL

Compound: COCC(C)N1CC([C@@H]2COC(=O)C(C)(C)C(=O)[C@H](C)[C@@H](O[C@@H]3O[C@H](C)C[C@H](N(C)C)[C@H]3O)[C@](C)(OC)C[C@@H](C)CN2C)C1 (stereo partly drawn) [Compound 32, (3R,6R,8R,9R,10R)-9-(((2S,3R,4S,6R)-4-(dimethylamino)-3-hydroxy-6-methyltetrahydro-2H-pyran-2-yl)oxy)-8-methoxy-3-(1-(1-methoxypropan-2-yl)azetidin-3-yl)-4,6,8,10,12,12-hexamethyl-1-oxa-4-azacyclotridecane-11,13-dione]
- MIC (A. baumannii MP-15): > 32 µg/mL
- MIC (K. pneumoniae MP-546): 4 to 32 µg/mL (≈ 6.37 to 51 µM)
- MIC (K. pneumoniae MP-648): 4 to 32 µg/mL (≈ 6.37 to 51 µM)
- MIC (P. aeruginosa MP-3): > 32 µg/mL
- MIC (E. coli MP-4): < 4 µg/mL
- MIC (S. aureus MP-12): > 32 µg/mL

Compound: CO[C@]1(C)C[C@@H](C)CN(C)[C@H](C2CN(CC3CC3)C2)COC(=O)C(C)(C)C(=O)[C@H](C)[C@H]1O[C@@H]1O[C@H](C)C[C@H](N(C)C)[C@H]1O [Compound 37, (3R,6R,8R,9R,10R)-3-(1-(cyclopropylmethyl)azetidin-3-yl)-9-(((2S,3R,4S,6R)-4-(dimethylamino)-3-hydroxy-6-methyltetrahydro-2H-pyran-2-yl)oxy)-8-methoxy-4,6,8,10,12,12-hexamethyl-1-oxa-4-azacyclotridecane-11,13-dione]
- MIC (A. baumannii MP-15): > 32 µg/mL
- MIC (K. pneumoniae MP-546): < 4 µg/mL
- MIC (K. pneumoniae MP-648): 4 to 32 µg/mL (≈ 6.56 to 52.5 µM)
- MIC (P. aeruginosa MP-3): > 32 µg/mL
- MIC (E. coli MP-4): < 4 µg/mL
- MIC (S. aureus MP-12): 4 to 32 µg/mL (≈ 6.56 to 52.5 µM)

Compound: CO[C@]1(C)C[C@@H](C)CN(C)[C@H](C2CN(C(=O)CNC(C)(C)C)C2)COC(=O)C(C)(C)C(=O)[C@H](C)[C@H]1O[C@@H]1O[C@H](C)C[C@H](N(C)C)[C@H]1O [Compound 41, (3R,6R,8R,9R,10R)-3-(1-(tert-butylglycyl)azetidin-3-yl)-9-(((2S,3R,4S,6R)-4-(dimethylamino)-3-hydroxy-6-methyltetrahydro-2H-pyran-2-yl)oxy)-8-methoxy-4,6,8,10,12,12-hexamethyl-1-oxa-4-azacyclotridecane-11,13-dione]
- MIC (A. baumannii MP-15): > 32 µg/mL
- MIC (K. pneumoniae MP-546): < 4 µg/mL
- MIC (K. pneumoniae MP-648): 4 to 32 µg/mL (≈ 5.98 to 47.8 µM)
- MIC (P. aeruginosa MP-3): > 32 µg/mL
- MIC (E. coli MP-4): < 4 µg/mL
- MIC (S. aureus MP-12): 4 to 32 µg/mL (≈ 5.98 to 47.8 µM)

Compound: CO[C@]1(C)C[C@@H](C)CN(C)[C@H](C2CN(Cc3cnn(C)c3)C2)COC(=O)C(C)(C)C(=O)[C@H](C)[C@H]1O[C@@H]1O[C@H](C)C[C@H](N(C)C)[C@H]1O [Compound 49, (3R,6R,8R,9R,10R)-9-(((2S,3R,4S,6R)-4-(dimethylamino)-3-hydroxy-6-methyltetrahydro-2H-pyran-2-yl)oxy)-8-methoxy-4,6,8,10,12,12-hexamethyl-3-(1-((1-methyl-1H-pyrazol-4-yl)methyl)azetidin-3-yl)-1-oxa-4-azacyclotridecane-11,13-dione]
- MIC (A. baumannii MP-15): > 32 µg/mL
- MIC (K. pneumoniae MP-546): < 4 µg/mL
- MIC (K. pneumoniae MP-648): 4 to 32 µg/mL (≈ 6.16 to 49.2 µM)
- MIC (P. aeruginosa MP-3): > 32 µg/mL
- MIC (E. coli MP-4): < 4 µg/mL
- MIC (S. aureus MP-12): 4 to 32 µg/mL (≈ 6.16 to 49.2 µM)

Compound: CO[C@]1(C)C[C@@H](C)CN(C)[C@H](C2CN(C(=O)CCN(C)C)C2)COC(=O)C(C)(C)C(=O)[C@H](C)[C@H]1O[C@@H]1O[C@H](C)C[C@H](N(C)C)[C@H]1O [Compound 50, (3R,6R,8R,9R,10R)-9-(((2S,3R,4S,6R)-4-(dimethylamino)-3-hydroxy-6-methyltetrahydro-2H-pyran-2-yl)oxy)-3-(1-(3-(dimethylamino)propanoyl)azetidin-3-yl)-8-methoxy-4,6,8,10,12,12-hexamethyl-1-oxa-4-azacyclotridecane-11,13-dione]
- MIC (A. baumannii MP-15): > 32 µg/mL
- MIC (K. pneumoniae MP-546): 4 to 32 µg/mL (≈ 6.11 to 48.9 µM)
- MIC (K. pneumoniae MP-648): 4 to 32 µg/mL (≈ 6.11 to 48.9 µM)
- MIC (P. aeruginosa MP-3): > 32 µg/mL
- MIC (E. coli MP-4): 4 to 32 µg/mL (≈ 6.11 to 48.9 µM)
- MIC (S. aureus MP-12): 4 to 32 µg/mL (≈ 6.11 to 48.9 µM)

Compound: CO[C@]1(C)C[C@@H](C)CN(C)[C@H](C2CN(CCC(C)C)C2)COC(=O)C(C)(C)C(=O)[C@H](C)[C@H]1O[C@@H]1O[C@H](C)C[C@H](N(C)C)[C@H]1O [Compound 51, (3R,6R,8R,9R,10R)-9-(((2S,3R,4S,6R)-4-(dimethylamino)-3-hydroxy-6-methyltetrahydro-2H-pyran-2-yl)oxy)-3-(1-isopentylazetidin-3-yl)-8-methoxy-4,6,8,10,12,12-hexamethyl-1-oxa-4-azacyclotridecane-11,13-dione]
- MIC (A. baumannii MP-15): 4 to 32 µg/mL (≈ 6.39 to 51.1 µM)
- MIC (K. pneumoniae MP-546): < 4 µg/mL
- MIC (K. pneumoniae MP-648): 4 to 32 µg/mL (≈ 6.39 to 51.1 µM)
- MIC (P. aeruginosa MP-3): > 32 µg/mL
- MIC (E. coli MP-4): < 4 µg/mL
- MIC (S. aureus MP-12): 4 to 32 µg/mL (≈ 6.39 to 51.1 µM)

Compound: CO[C@]1(C)C[C@@H](C)CN(C)[C@H](C2CN(Cc3cnccn3)C2)COC(=O)C(C)(C)C(=O)[C@H](C)[C@H]1O[C@@H]1O[C@H](C)C[C@H](N(C)C)[C@H]1O [Compound 55, (3R,6R,8R,9R,10R)-9-(((2S,3R,4S,6R)-4-(dimethylamino)-3-hydroxy-6-methyltetrahydro-2H-pyran-2-yl)oxy)-8-methoxy-4,6,8,10,12,12-hexamethyl-3-(1-(pyrazin-2-ylmethyl)azetidin-3-yl)-1-oxa-4-azacyclotridecane-11,13-dione]
- MIC (A. baumannii MP-15): > 32 µg/mL
- MIC (K. pneumoniae MP-546): 4 to 32 µg/mL (≈ 6.17 to 49.4 µM)
- MIC (K. pneumoniae MP-648): > 32 µg/mL
- MIC (P. aeruginosa MP-3): > 32 µg/mL
- MIC (E. coli MP-4): 4 to 32 µg/mL (≈ 6.17 to 49.4 µM)
- MIC (S. aureus MP-12): 4 to 32 µg/mL (≈ 6.17 to 49.4 µM)

Compound: CCCN1C[C@H](C)C[C@@](C)(OC)[C@H](O[C@@H]2O[C@H](C)C[C@H](N(C)C)[C@H]2O)[C@@H](C)C(=O)C(C)(C)C(=O)OC[C@H]1[C@H]1C[C@H](N(C)CC(C)C)C1 [Compound 60, (3R,6R,8R,9R,10R)-9-(((2S,3R,4S,6R)-4-(dimethylamino)-3-hydroxy-6-methyltetrahydro-2H-pyran-2-yl)oxy)-3-((1r,3R)-3-(isobutyl(methyl)amino)cyclobutyl)-8-methoxy-6,8,10,12,12-pentamethyl-4-propyl-1-oxa-4-azacyclotridecane-11,13-dione]
- MIC (A. baumannii MP-15): > 32 µg/mL
- MIC (K. pneumoniae MP-546): 4 to 32 µg/mL (≈ 5.99 to 47.9 µM)
- MIC (K. pneumoniae MP-648): 4 to 32 µg/mL (≈ 5.99 to 47.9 µM)
- MIC (P. aeruginosa MP-3): > 32 µg/mL
- MIC (E. coli MP-4): < 4 µg/mL
- MIC (S. aureus MP-12): 4 to 32 µg/mL (≈ 5.99 to 47.9 µM)
